# Reference: patent US20220168301A1, “METHODS FOR TREATING SYMPTOMATIC ORTHOSTATIC HYPOTENSION” (Cerecor Inc, priority 2019, published 2022)
# Read-outs that look alike come from different tables or passages of the source.
# Assays:
# [1] = system: patients with symptomatic nOH associated with Parkinson's disease; experiment: Safety and tolerability of single doses in patients with nOH associated with Parkinson's disease; type: in vivo, human
# Description: This study was designed as a randomized, double-blind, placebo-controlled trial in order to distinguish effects of active treatment in an efficient and unbiased manner. As CERC-301 had not previously been tested in subjects with symptomatic OH, a single escalating dose study design was used to ensure safety of the study participants.
# (§1) Subjects were dosed on five separate occasions, approximately 7-10 days apart, with one of four single escalating doses of CERC-301 or placebo and underwent an orthostatic challenge test to assess the safety, tolerability, effect on blood pressure, and PK. Subjects also completed a symptomatic assessment following the orthostatic challenge. Subjects were enrolled and randomized based on the dosing schedule in Table 4:
# AEs were monitored and the following information recorded: • Verbatim complaint • Whether the event was treatment-emergent (TEAE) • Whether event was serious (SAE) • Date of onset • Severity of event • Relationship of event to study drug • Action taken regarding study drug due to the event • Clinical outcome of event (resolved or ongoing) • If resolved, provide date of resolution
# The following vital signs were measured during the study: • Blood pressure (systolic and diastolic [mm Hg]) • Heart rate (beats per minute [bpm]) • Oral body temperature (°C)
# Two analysis sets were used. […] The SAF consists of all randomized subjects who receive at least one dose of study medication. […] The PKAS consists of all subjects from the SAF for whom sufficient plasma concentration data are available to facilitate the calculation of at least one PK parameter.
# All safety and tolerability data are summarized using descriptive statistics. They are listed and summarized in tabular and/or graphical form. […] Descriptive statistics for laboratory values and their change or shift from baseline for each dose group are provided for each scheduled time of collection. Descriptive statistics for vital signs and their change from baseline for each dose group are provided for each scheduled time of collection. The placebo subjects are combined into a single placebo group for summary presentations.
# [2] = system: healthy subjects; experiment: 24-hour ambulatory blood pressure monitoring (ABPM), 7-day once-daily dosing study in healthy subjects; type: in vivo, human
# Description: The effects of CERC-301 were assessed in a randomized, double-blind, placebo-controlled, parallel-group, three-part safety, pharmacokinetic, and pharmacodynamic study in healthy human subjects.
# One of the primary objective of the study was to investigative the dose-response relationship between CERC-301 and pharmacodynamic (PD) effects on blood pressure [BP] in healthy subjects. Secondary objectives included the investigation of the safety and tolerability of CERC-301 over 7 days of once-daily administration and the investigation of a single dose and 7-day repeated dose pharmacokinetic (PK) profiles of CERC-301, and to explore sub-group (age or gender) effects on other safety parameters, such as adverse events (AEs).
# The study was a randomized, double-blind, placebo-controlled parallel-group, three-part, repeated dose in-patient study investigating the safety, tolerability, PK, and PD of CERC-301 in healthy subjects.
# (§2) Part 1: After the screening period, healthy, young male and female subjects were randomly assigned to dose groups as shown in Table 1. Randomized subjects participated in a time-matched baseline BP monitoring day (Day −1), once-daily dosing with study drug during which safety, PK, and PD assessments were performed on Days 1-7, discharge on Day 8, a follow-up period for PK and safety on Days 9-11, and end-of-study visit on Day 16. Each parallel dose group was balanced for gender (approximately equal number of males and females in each group).
# as §2, with “2:” for “1:”, “young and intermediate age” for “young”, “2.” for “1.”
# Part 3: After the screening period, healthy, young and elderly male and female subjects were randomly assigned to dose groups as shown in Table 3.
# as §2, with “Randomized” for “Part 1: After the screening period, healthy, young male and female subjects were randomly assigned to dose groups as shown in Table 1. Randomized”
# Subjects received 8, 12, 16 or 20 mg CERC-301 or matching placebo once-daily for 7 days.
# PD endpoints included the following […]: • 24-hour Ambulatory Blood Pressure Monitoring (ABPM) • Observed values and time matched change from baseline (pre-dose) of 24-hour ABPM • Mean 24 hours, Sleep and Awake systolic and diastolic BPs. • Mean Arterial Pressure (MAP), pulse pressure, and heart rate. • Observed values and change from baseline of sub-scale scores and Total Mood Disturbance (TMD) scores from Profiles of Mood States (POMS)
# [3] = rats, cited from earlier work
# [4] = Plasma pharmacokinetics of single escalating doses in patients with symptomatic nOH associated with Parkinson's disease; type: in vivo, human; settings: for Cmax / AUC: human, plasma, oral; for AUC: 6-hour PK collection period, read-out: Area Under the Curve (AUC)
# Description: as §1
# Investigational product was administered as CERC-301 4 mg tablets and matching placebo. Study drug was administered orally (P.O) with water approximately 1.5 hours after the patient consumed breakfast.
# PK samples were drawn pre-dose and at 0.5, 1, 2, 4 and 6 hours post-dose. All blood draws were done after blood pressure measures are taken.
# Blood samples for plasma concentration analysis of CERC-301 were collected at pre-dose and 0.5, 1, 2, 4 and 6 hours post-dose at all visits.
# Blood sampling, processing, storage, and shipping instructions were provided in the Laboratory Manual. The plasma samples were analyzed via liquid chromatography tandem mass spectrometry (LC-MS/MS) following a validated method.
# PK parameter estimates for CERC 301 were calculated using standard non-compartmental methods of analysis.
# [5] = system: patients with moderate Parkinson's disease; settings: single oral dose 7 mg; cited from earlier work
# [6] = whole study, active and placebo not separated
# [7] = 20 mg, 24 hours postdose, after 7 days of dosing
compound,measurement,setting,value
Cc1ccc(COC(=O)N2CC[C@H](CNc3ncccn3)[C@H](F)C2)cc1 [CERC-301],Safety and tolerability,"[1]; single doses of 8, 12, 16 and 20 mg",safe and well tolerated
same,"Signals of increased heart rate or supine hypertension during the recumbent phase of the OST, active versus placebo",[1]; single doses of 8 to 20 mg,"No signals of increased heart rate or, supine hypertension"
same,SAEs,[1]; whole study,No SAEs were reported
same,AE reported: blurred vision,[1]; [6],14.3%
same,AE reported: dizziness,[1]; [6],7.1%
same,AE reported: fall,[1]; [6],14.3%
same,AE reported: hypoaesthesia,[1]; [6],7.1%
same,AE reported: hypotension,[1]; [6],7.1%
same,AE reported: memory impairment,[1]; [6],7.1%
same,AE reported: nasal congestion,[1]; [6],7.1%
same,AE reported: on/off phenomenon,[1]; [6],7.1%
same,AE reported: somnolence,[1]; [6],7.1%
same,AE reported: squamous cell carcinoma,[1]; [6],7.1%
same,Average nighttime SBP increase,"[2]; 16 mg, Day 7",2 mm Hg
same,Mean hourly average DBP change from baseline,[2]; [7],approximately 10 mm Hg
same,Mean hourly average SBP change from baseline,[2]; [7],approximately 14 mm Hg
same,Maximum average hourly daytime ambulatory DBP,"[2]; 20 mg, Day 1",approximately 15 mm Hg
same,Maximum average hourly daytime ambulatory SBP,"[2]; 20 mg, Day 1",approximately 16 mm Hg
same,Maximum average hourly daytime ambulatory DBP,"[2]; 20 mg, Day 4",approximately 15 mm Hg
same,Maximum average hourly daytime ambulatory SBP,"[2]; 20 mg, Day 4",~21 mm Hg
same,Maximum average hourly daytime ambulatory DBP,"[2]; 20 mg, Day 7",~19 mm Hg
same,Maximum average hourly daytime ambulatory SBP,"[2]; 20 mg, Day 7",~24 mm Hg
same,Excretion,[3],excreted exclusively as metabolites via both the biliary and renal routes
same,Metabolism,[3],highly metabolized via multiple cytochrome P450 (CYP450) enzymes
same,Absorption,[3]; oral administration,rapidly absorbed after oral administration
same,Cmax dose proportionality,[4]; 8 to 20 mg single doses (FIG. 2),generally dose proportional
same,Tmax,"[4]; all dosing groups (8, 12, 16, 20 mg single dose P.O.)",approximately 2 hours post dose
same,Cmax,[4]; 8 mg single dose,108 ng/mL
same,AUC,[4]; 8 mg single dose,473 ng·h/mL
same,Cmax,[4]; 12 mg single dose,161 ng/mL
same,AUC,[4]; 12 mg single dose,795 ng·h/mL
same,Cmax,[4]; 16 mg single dose,187 ng/mL
same,AUC,[4]; 16 mg single dose,954 ng·h/mL
same,Cmax,[4]; 20 mg single dose,266 ng/mL
same,AUC,[4]; 20 mg single dose,1240 ng·h/mL
same,Plasma concentration relative to target,[5],> 400 nM
same,Systolic and diastolic blood pressure relative to placebo,[5],increases in systolic and diastolic blood pressure relative to placebo
same,Tolerability,[5],generally well tolerated
